In the supplement of paper PMC10307832:

Compound: CO[C@H]1C[C@@H]2CC[C@@H](C)[C@@](O)(O2)C(=O)C(=O)N2CCCC[C@H]2C(=O)O[C@H]([C@H](C)C[C@@H]2CC[C@@H](OCCO)[C@H](OC)C2)CC(=O)[C@H](C)/C=C(\C)[C@@H](O)[C@@H](OC)C(=O)[C@H](C)C[C@H](C)/C=C/C=C/C=C/1C [Everolimus]
Experiment: relative viability (nuclei count vs DMSO), 5 days (fraction); higher = more cells survive
Outline: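 A plate was accepted only when its control CV was below 25% and the cells had doubled at least once. Viability is defined from nuclear counts as treated wells divided by vehicle wells, with the median taken across plates. That median covers lung cancer cell lines grown in 1536-well plates, dosed by pinning at five √10-spaced library-drug concentrations, and counted in MetaXpress from 4× Hoechst images after 5 days.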

Row | Cell Line | relative viability (0.01 µM) | relative viability (0.03162 µM) | relative viability (0.1 µM) | relative viability (0.3162 µM) | relative viability (1 µM)
1 | 201T | 0.9 | 0.893 | 0.842 | 0.855 | 0.878
2 | A549 | 0.602 | 0.412 | 0.371 | 0.423 | 0.399
3 | A-427 | 0.803 | 0.772 | 0.693 | 0.808 | 0.799
4 | ABC-1 | 0.604 | 0.822 | 0.781 | 0.707 | 0.875
5 | BEN | 0.567 | 0.358 | 0.334 | 0.46 | 0.387
6 | CAL-12T | 0.643 | 0.7 | 0.476 | 0.542 | 0.604
7 | COR-L23 | 0.858 | 0.942 | 0.869 | 0.88 | 0.684
8 | COR-L 105 | 0.667 | 0.682 | 0.592 | 0.552 | 0.663
9 | Calu-6 | 0.956 | 0.922 | 0.892 | 0.88 | 0.988
10 | ChaGo-K-1 | 0.976 | 0.95 | 0.865 | 0.899 | 0.974
11 | EBC-1 | 0.415 | 0.385 | 0.41 | 0.416 | 0.408
12 | EKVX | 0.628 | 0.687 | 0.544 | 0.541 | 0.573
13 | EMC-BAC-2 | 0.689 | 0.606 | 0.55 | 0.473 | 0.565
14 | EPLC-272H | 0.691 | 0.596 | 0.568 | 0.513 | 0.626
15 | H3255 | 0.735 | 0.664 | 0.543 | 0.528 | 0.495
16 | HARA | 0.858 | 0.999 | 0.784 | 0.87 | 0.78
17 | HCC-15 | 0.964 | 0.994 | 0.922 | 0.98 | 0.958
18 | HCC-44 | 1 | 0.974 | 0.985 | 0.969 | 0.957
19 | HCC-78 | 0.905 | 0.919 | 0.659 | 0.858 | 0.644
20 | HCC-366 | 0.955 | 0.961 | 0.935 | 0.929 | 0.972

Row | Cell Line | relative viability (0.01 µM) | relative viability (0.03162 µM) | relative viability (0.1 µM) | relative viability (0.3162 µM) | relative viability (1 µM)
21 | HCC-827 | 1.1 | 1.09 | 1.01 | 1.03 | 1.05
22 | HOP-62 | 0.901 | 0.856 | 0.767 | 0.777 | 0.794
23 | IA-LM | 0.601 | 0.396 | 0.378 | 0.374 | 0.406
24 | LC-2-ad | 0.932 | 1.03 | 0.89 | 0.958 | 0.9
25 | LCLC-97TM1 | 0.771 | 0.82 | 0.709 | 0.892 | 0.775
26 | LCLC-103H | 0.977 | 0.969 | 0.834 | 0.922 | 0.871
27 | LK-2 | 0.844 | 0.554 | 0.546 | 0.491 | 0.487
28 | LOU-NH91 | 0.823 | 0.799 | 0.798 | 0.789 | 0.773
29 | LU99A | 0.557 | 0.644 | 0.626 | 0.591 | 0.679
30 | LXF-289 | 1.09 | 1.07 | 1 | 1.03 | 1.05
31 | NCI-H23 | 0.639 | 0.516 | 0.468 | 0.583 | 0.55
32 | NCI-H322M | 0.688 | 0.728 | 0.733 | 0.694 | 0.722
33 | NCI-H358 | 0.483 | 0.487 | 0.514 | 0.479 | 0.525
34 | NCI-H441 | 0.898 | 0.961 | 0.907 | 0.984 | 0.952
35 | NCI-H460 | 0.951 | 1.03 | 0.957 | 0.921 | 0.939
36 | NCI-H520 | 0.436 | 0.413 | 0.401 | 0.326 | 0.371
37 | NCI-H522 | 0.722 | 0.655 | 0.601 | 0.731 | 0.813
38 | NCI-H596 | 0.699 | 0.628 | 0.54 | 0.697 | 0.588
39 | NCI-H647 | 0.644 | 0.521 | 0.539 | 0.535 | 0.65
40 | NCI-H650 | 0.7 | – | 0.783 | 0.566 | 0.583
